The record followed here is patent US20250352518A1, “A BENZIMIDAZOLE COMPOUND WITH ANTIHELMINTHIC ACTIVITY FOR USE IN REVERSING, ARRESTING OR SLOWING DOWN CELLULAR AGEING IN A VERTEBRATE SUBJECT” (RAVAN BIO LIMITED, priority 2022, published 2025).

The nature of assay [1]: Canine case studies: biological age by breed-specific telomere length (DNA-My-Dog). In kind it is in vivo. As to conditions: for reduction in biological age: versus chronological age. On the procedure: (§1) In 2017, a […] (D.O.B Jan. 5, 2008) female Lhasa Apso/Jack Russell/Shih Tzu cross-breed (confirmed by genetic breed analysis: DNA-My-Dog) with a body mass of 9 Kg, was treated with 0.6 gm/day of 22.2% Fenbendazole (Panacur® granules) which was given orally for 3 consecutive days/week for 1 month and this cycle was repeated every 3rd month giving 4 cycles/annum providing a total of 16×1 month treatment cycles spread over a period of 4 yrs up to the present day.
Subject C2A's chronological age was verified by microchip implantation date using the Petlog database and, in March 2022, a cheek epithelium swab was sent to DNA-My-Dog for genetic assessment of breed composition and biological age by analysis of breed-specific telomere length. The results, returned on the 30 Mar. 2022, reported a biological age of 3 yrs old. Three more treatment cycles were subsequently administered and a repeat biological age telomere test carried out on the 30 Sep. 2022 which also returned a biological age of 3 yrs old. […] Translating these findings to humans, a 14 yr old Lhasa Apso has an equivalent human age of about 72 whereas a 3 yr old has an equivalent human age of about 28. This indicates a potential reduction in human age of 44 yrs which would equate to a 61% reduction of biological age in humans.
(§2) In 2017, a 4 yr old Jack Russell/Poodle/Maltese cross-breed (Confirmed by genetic breed analysis: DNA-My-Dog) with a body mass of 9.2 Kg was treated with 1.0 gm/day of 22.2% Fenbendazole Panacur® granules for 3 days per week and 4 days without. The dosing schedule of 3 days with, 4 days without treatment per week was continued for 3 months after which the dose was reduced to 0.6 gm/day of Panacur® and treatment alternated between 1 month with and 1 month without for 19 months providing a total of 11×1 month treatment cycles over the whole time period. After this, treatment was discontinued for 2 years and 5 months up to 12 May 2022 when a cheek swab was taken for analysis of biological age and this was repeated 5 months later on the 30 Sep. 2022.
(§3) The initial reason for treating this animal was that it had been diagnosed with an anal sac adenocarcinoma and, at the time, it was decided to explore the use of Fenbendazole as an alternative treatment. […] Subject C2B's birth date was May 2014 giving a chronological age of 8 yrs which was verified by microchip implantation date using the Petlog database. Following the outlined treatment with Fenbendazole, in April 2022, a cheek epithelium swab was sent to DNA-My-Dog for assessment of breed composition and biological age by analysis of breed-specific telomere length. The result, returned on the 12 May 2022, reported a biological age of 1 yr old indicating a reduction in biological age of 7 yrs. which is equivalent to ˜90% reduction in biological age. […] After a further gap of 5 months without treatment, on the 30 Sep. […] However, unlike subject C2A, no treatment was given during this period so the most likely explanation is that the efficacy time-limit of the initial treatment has been exceeded.

Assay [2] deals with post-confluent NHEK cells. The assay can be described thus: Growth of re-cultured post-confluent (cell-cell contact growth arrested) NHEK's. The assay is classed as cell-based, human.
Assay [3] in a line: Canine case studies: age-related pathologies and tumour observations. In kind it is in vivo, dog. On the procedure: as §1, §2, §3
Where [4] appears, read: dog C2A findings translated to equivalent human age.

Turning to `COC(=O)Nc1nc2ccc(Sc3ccccc3)cc2[nH]1` [Fenbendazole, methyl 5-(phenylthio)-2-benzimidazole carbamate], in assay [1] (setting [4]), the “potential reduction in human age” value is 44 yrs and the “reduction of biological age in humans” value worked out at 61%. Also, the “biological age (repeat test)” value in assay [1] (dog C2A, 30 Sep. 2022, after three more treatment cycles) is on record as 3 yrs. This compound also had a biological age in assay [1] (dog C2A, chronological age 14 yrs, result 30 Mar. 2022, 0.6 gm/day Panacur granules 3 days/week, 1 month cycles over 4 yrs) of 3 yrs. Besides, the “reduction in biological age” value in assay [1] (dog C2A) came to 11 yrs. The “reduction in biological age” value in assay [1] (dog C2A, over 4 years) is roughly 80%. Also, the “biological age (repeat test)” value in assay [1] (dog C2B, 30 Sep. 2022, further 5 months without treatment) was found to be 3 yrs. Moreover, in assay [1] (dog C2B, chronological age 8 yrs, result 12 May 2022, 19 months treatment then 2 yrs 5 months without), the biological age was found to be 1 yr. Further, in assay [2] (treatment P3-P5 only, withdrawn following passage 6, 5 days, FIG. 5), the “number of viable cells (Via-1 Assay) following withdrawal of drug” value is 9.7×10^4 cells/ml. Further, the “number of viable cells (Via-1 Assay)” value in assay [2] (treatment continued for passages P3-P6, 5 days after passage 6, FIG. 5) was 9.5×10^4 cells/ml. Moreover, in assay [3] (dog C2A, during 4 yr treatment), the “body weight and physical activity” value is “significant weight-loss and increased physical activity”; the growth of teeth result was “activation of new growth of teeth”; the “skin conditions / subcutaneous lesions” value is “normalization of skin and regression of subcutaneous lipoma like lesions”. For the same compound, in assay [3] (dog C2B), the “persistence of anti-ageing effects after treatment is discontinued” value is reported as “at least 2 years” and the “visible signs of ageing” value was “does not show any visible signs of ageing”. Further, the “anal sac adenocarcinoma tumour” value in assay [3] (dog C2B, during treatment) is listed as “regressed”.
